Data on 15 compounds can be found in PubChem BioAssay (NCI).

By TGI is commonly meant the concentration giving total growth inhibition. Lower therefore signals greater sensitivity of the cells.

SMILES strings stand for the structures.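 Briefly, cells in 96-well plates were exposed to five compound concentrations for 48 h, and endpoints were estimated by linear interpolation. TGI is the concentration that stops growth completely.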

Common to all, as to assay: DTP human tumour cell line panel, 48 h
In experiment [1] the test system is MDA-MB-435.
For experiment [2], the system named is HT29 colon.
Experiment [3] relates to SNB-19 CNS.
For experiment [4], the system named is MOLT-4 leukemia.
Experiment [5] relates to MCF7 breast.
For experiment [6], the system named is SNB-75 CNS.
The subject of experiment [7] is HCT-15 colon.
Experiment [8] deals with A549 NSCLC.
Experiment [9] has as its system MDA-N.
Experiment [10] has as its system SK-MEL-5 melanoma.
In experiment [11] the test system is OVCAR-8 ovarian.
Experiment [12] relates to EKVX NSCLC.
The subject of experiment [13] is COLO 205 colon.
In experiment [14] the test system is NCI-H23 lung.
In experiment [15] the test system is RPMI-8226 leukemia.
The test system of experiment [16] is A498 renal.
Experiment [17] relates to CCRF-CEM leukemia.
Experiment [18] has as its system HL-60(TB) leukemia.
For experiment [19], the system named is SR leukemia.
For experiment [20], the system named is HCC-2998 colon.

Consider `COc1cccc(NC(=O)CC(=O)NN)c1`, for which the TGI in experiment [1], in experiment [2], in [3], in experiment [4], in experiment [5] and in [6] was over 100 µM each time. For the same compound, the TGI in [7], in [8], in experiment [9], in experiment [10], in [11] and in experiment [12] was over 100 µM throughout. In addition, the TGI in [13], in [14], in experiment [15], in experiment [16], in experiment [17] and in experiment [18] was over 100 µM in each case. In addition, in experiment [19], the TGI is over 100 µM.

On to `Cc1ccc(C2=CC(=O)/C(=C\C(=O)c3ccc(Br)cc3)O2)c(C)c1`, for which the TGI in experiment [1] was 38.7 µM; in experiment [2] it was 17.6 µM; in [3], over 49.1 µM; in experiment [4], over 47.9 µM; in experiment [5] it was 23.8 µM; in [6] it was 28.2 µM. Further, the TGI in experiment [7] was found to be 36.9 µM; in experiment [20] it was 25.4 µM; in experiment [8], 48.4 µM; in experiment [9], 19.9 µM; in experiment [10] it was 41.5 µM; in experiment [11], 19 µM. Moreover, the TGI in [12] is over 67.7 µM; in experiment [13] it was 14.3 µM; in [14] it was 56.9 µM; in [15], 10 µM; in experiment [16] it was 39.4 µM; in experiment [17], over 100 µM. The TGI in [18] was over 100 µM; in experiment [19], 12.6 µM.

On to `O/N=C\c1c2c(cc3c1CCC3)CCC2`, for which the TGI in experiment [1], in experiment [2], in [3], in experiment [4], in [5] and in experiment [6] was over 100 µM each time. The TGI in experiment [7], in experiment [20], in [8], in experiment [9], in experiment [10] and in [11] was over 100 µM each time. Besides, the TGI in experiment [12], in [13], in experiment [14], in [15], in [16] and in experiment [17] was over 100 µM throughout. Besides, the TGI in [18] and in [19] was over 100 µM each time.

For the compound `COc1ccc(-c2nc3ccccc3c(=O)[nH]2)cc1`, the TGI in [1] is over 100 µM; in [2], over 100 µM; in experiment [3] it was over 100 µM; in experiment [4], over 100 µM; in [5], over 100 µM; in experiment [6], 84.9 µM. Moreover, the TGI in [7], in experiment [8], in [9], in experiment [10], in experiment [11] and in experiment [12] was over 100 µM in each case. Also, the TGI in experiment [13], in experiment [14], in experiment [15], in [16], in [17] and in experiment [18] was over 100 µM throughout. The TGI in experiment [19] is over 100 µM.

For `Nc1cccc(-c2cc(=O)c3cc4c(cc3[nH]2)OCO4)c1`, the TGI was 0.415 µM in [1]; 4.25 µM in experiment [2]; over 48.5 µM in experiment [3]; over 100 µM in experiment [4]; over 100 µM in experiment [5]; over 100 µM in [6]. Further, the TGI is 21.8 µM in experiment [7]; 26.5 µM in [20]; over 47.8 µM in experiment [8]; 0.474 µM in experiment [9]; over 22.6 µM in [11]; over 100 µM in [12]. Further, the TGI is 5.93 µM in experiment [13]; 22.6 µM in [14]; over 100 µM in [15]; over 100 µM in experiment [16]; over 100 µM in experiment [17]; over 100 µM in experiment [18]. Further, the TGI in [19] was over 100 µM.

In the case of `NC(CCC(=O)c1ccccn1)C(=O)O` (stereo unspecified), the TGI in [1], in experiment [2], in experiment [3], in [4], in experiment [5] and in experiment [7] was over 100 µM throughout. Also, the TGI in experiment [20], in [8], in [9], in [10], in [11] and in [12] was over 100 µM throughout. For the same compound, the TGI in experiment [13], in experiment [14], in experiment [15], in [16], in experiment [17] and in experiment [18] was over 100 µM each time. The compound further showed a TGI in experiment [19] of over 100 µM.

With `NC(=S)NNCC(=O)CC(O)(C(F)(F)F)C(F)(F)Cl` (stereo unspecified), the TGI in [1], in [2], in [3], in experiment [4], in experiment [5] and in experiment [6] was over 100 µM each time. Further, the TGI in [7], in experiment [8], in [9], in experiment [10], in experiment [11] and in experiment [12] was over 100 µM each time. In addition, the TGI in experiment [13], in experiment [14], in experiment [15], in experiment [16], in [17] and in experiment [18] was over 100 µM each time. Further, the TGI in experiment [19] was over 100 µM.

`COC(=O)/C=C(C)/C=C\COC1CCCCO1` (stereo unspecified): the TGI in experiment [1], in experiment [3], in experiment [4], in experiment [5], in experiment [6] and in [7] was over 100 µM throughout. In addition, the TGI in experiment [20], in experiment [8], in experiment [9], in experiment [10], in [11] and in experiment [12] was over 100 µM throughout. For the same compound, the TGI in experiment [13], in experiment [14], in experiment [15], in experiment [16], in experiment [17] and in [18] was over 100 µM each time. In experiment [19], the TGI is over 100 µM.

Turning to `O=C1NC(N2CCCC(CO)C2)=N/C1=C\c1cccs1` (stereo unspecified), the TGI in [1], in [2], in experiment [3], in experiment [4], in experiment [5] and in experiment [6] was over 100 µM each time. Besides, the TGI in experiment [7], in [20], in [8], in experiment [9], in experiment [10] and in experiment [11] was over 100 µM in each case. The total growth inhibition concentration (TGI) in experiment [12], in experiment [13], in experiment [14], in [15], in experiment [17] and in [18] was over 100 µM in each case. The TGI in experiment [19] is over 100 µM.

As to `CNC(=O)[C@H](Cc1ccccc1)NC(=O)N(CCC#N)CCN(C(=O)N[C@@H](Cc1ccccc1)C(=O)OC)c1ccccc1`, the TGI in experiment [1], in experiment [2], in experiment [3], in [4], in experiment [5] and in [6] was over 100 µM throughout. Besides, the TGI in experiment [7], in experiment [8], in experiment [9], in experiment [10], in experiment [11] and in experiment [12] was over 100 µM each time. The TGI in experiment [13], in [14], in [15], in experiment [16], in experiment [17] and in experiment [18] was over 100 µM throughout. Also, in experiment [19], the total growth inhibition concentration (TGI) was over 100 µM.

As to `CC(C)=CCC[C@@H](C)C1=C(O)C(N[C@H](C)c2ccccc2)=C(C)C(=O)C1=O`, the TGI in [1] is over 62.3 µM; in [2] it was 14.1 µM; in [3] it was over 100 µM; in [4], over 30.1 µM; in experiment [5], 17.9 µM; in [6], over 56.4 µM. Besides, the TGI is over 63.2 µM in experiment [7]; 31.3 µM in experiment [20]; 14.7 µM in experiment [8]; 44.2 µM in [9]; 13.1 µM in [10]; over 24.1 µM in experiment [11]. Moreover, the TGI is over 100 µM in [12]; 20 µM in experiment [13]; 34.2 µM in experiment [14]; 22.2 µM in [15]; 32 µM in experiment [16]; 10.8 µM in [18]. The TGI in experiment [19] is over 100 µM.

As for `CNC(=O)OCc1cnc([N+](=O)[O-])n1C`, the TGI in experiment [1], in experiment [2], in experiment [4], in experiment [5], in [6] and in experiment [7] was over 100 µM throughout. Further, the TGI in experiment [20], in experiment [8], in [9], in [10], in experiment [11] and in [12] was over 100 µM throughout. Further, the TGI in experiment [13], in experiment [14], in experiment [15], in [16], in experiment [17] and in [18] was over 100 µM each time. In experiment [19], this compound showed a TGI of over 100 µM.

On to `Cc1sc(/N=C/C2=C(O)CC(C)(C)CC2=O)nc1-c1ccccc1`, for which the TGI in [1], in experiment [2], in [3], in experiment [4], in experiment [5] and in experiment [6] was over 100 µM throughout. For the same compound, the TGI in experiment [7], in [20], in experiment [8], in experiment [9], in experiment [10] and in experiment [11] was over 100 µM each time. Further, the TGI was over 100 µM in experiment [12]; over 100 µM in experiment [13]; over 100 µM in experiment [14]; over 100 µM in [15]; over 100 µM in [17]; 5.93 µM in experiment [18]. In addition, the TGI in experiment [19] is over 100 µM.

As to `COc1cc2c(c(OC)c1OC)C(=O)c1c(O)cc(C)c(OC)c1C2=O`, the TGI in experiment [1], in [2], in experiment [3], in experiment [4], in [5] and in experiment [6] was over 100 µM throughout. Besides, the TGI in [7], in experiment [20], in experiment [8], in [9], in experiment [10] and in [11] was over 100 µM each time. The concentration for total growth inhibition (TGI) in experiment [12], in experiment [13], in experiment [14], in experiment [15], in experiment [16] and in [18] was over 100 µM each time. Besides, the TGI in experiment [19] was over 100 µM.

As for `O=C(NNC(=O)c1ccco1)c1ccco1`, the TGI in [1], in experiment [2], in experiment [3], in experiment [4], in experiment [5] and in experiment [6] was over 100 µM throughout. The TGI in experiment [7], in [8], in experiment [9], in experiment [10], in experiment [11] and in experiment [12] was over 100 µM each time. The TGI in experiment [13], in experiment [15], in experiment [16], in [17], in [18] and in experiment [19] was over 100 µM throughout.
